Laboratory results from patent US20240368133A1, “Compounds for the Treatment of Pain, in Particular, Neuropathic Pain, and/or Other Diseases or Disorders that are Associated with AT2R and/or AT2R Mediated Signaling” (Confo Therapeutics N.V., priority 2021, published 2024).

Experiments:
[1] = Liver microsomal stability, mouse; format: in vitro ADME; details: male, pH 7.4, liver microsomes
Protocol: (§1) Mouse hepatic microsomes were isolated from pooled (50), perfused livers of male Balb/c mice. Rat hepatic microsomes were isolated from pooled (15), perfused livers of male Wistar rats. Isolation was performed according to the standard protocol (Hill, J. R. in Current Protocols in Pharmacology 7.8.1-7.8.11, Wiley Interscience, 2003). The batches of microsomes were tested for quality control using Imipramine, Propranolol and Verapamil as reference compounds.
(§2) Microsomal incubations were carried out in 96-well plates in 5 aliquots of 40 μL each (one for each time point). Liver microsomal incubation medium contained PBS (100 mM, pH 7.4), MgCl2 (3.3 mM), NADPH (3 mM), glucose-6-phosphate (5.3 mM), glucose-6-phosphate dehydrogenase (0.67 units/ml) with 0.42 mg of liver microsomal protein per ml. Control incubations were performed replacing the NADPH-cofactor system with PBS. Test compound (2 μM, final solvent concentration 1.6%) was incubated with microsomes at 37° C., shaking at 100 rpm. Incubations were performed in duplicates. Five time points over 40 minutes have been analyzed. The reactions were stopped by adding 12 volumes of 90% acetonitrile-water to incubation aliquots, followed by protein sedimentation by centrifuging at 5500 rpm for 3 minutes. […]. Supernatants were analyzed using the HPLC system coupled with tandem mass spectrometer (API3000 PE Sciex). Acquisition and analysis of the data were performed using Analyst 1.5.2 software (PE Sciex). The elimination constant (kel), half-life (t½) and intrinsic clearance (Clint) were determined in plot of […] versus time, using linear regression analysis:
(§3) Mouse hepatic microsomes were isolated from pooled, perfused livers of male CD1 mice. Rat hepatic microsomes were isolated from pooled, perfused livers of male Sprague Dawley rats. Dog hepatic microsomes were isolated from pooled, perfused livers of male Beagle dogs. The batches of microsomes were tested for quality control using Testosterone, Propranolol and Caffeine as reference compounds.
(§4) A 10 mM stock solution of compound in DMSO is diluted three-fold in DMSO. This pre-diluted compound solution is then further diluted to 2 μM in a 50 mM phosphate buffer (PBS, pH 7.4) and pre-warmed at 37° C. This compound dilution is mixed F2 with microsomal/cofactor mix at 37° C. under shaking at 300 rpm. Final reaction conditions are: 100 μL incubation volume, 1 μM of test compound (in duplicate), <0.1% DMSO, 0.5 mg/mL microsomes, 0.6 U/mL Glucose-6-phosphate-dehydrogenase (G6PDH, Roche, 10127671001), 3.3 mM MgCl2 (Sigma, M2670), 3.3 mM glucose-6-phosphate (Sigma, G-7879) and 1.3 mM NADP+ (Sigma, N-0505).
(§5) After 60 min of incubation at 300 rpm and 37° C., the reaction was stopped with 3 volumes of STOP solution (acetonitrile/MeOH 2/1 with diclofenac as internal standard). For the time point zero, 3 volumes of STOP solution were added to the compound dilution before the microsome mix was added. Six time points over 60 minutes have been analyzed. The samples of all time points were centrifuged, filtered and the supernatant analyzed by LCMS/MS (systems API4000).
(§6) The instrument responses (peak areas/IS peak area) were referenced to the zero time-point samples (considered as 100%) in order to determine the percentage of compound remaining.
(§7) Testosterone (1 μM) and Propranolol and Caffeine (1 μM) were used as reference compounds, being unstable and stable compounds respectively. If the microsomal stability values for these controls are not in the range determined by the historical data, the assay is not validated. The solubility of the compound in the final test concentration in 50 mM buffer pH 7.4 is checked by microscope to indicate whether precipitation is observed or not. If a precipitate is observed, no data of microsomal stability is generated.

[2] = target: human AT2R fused to Cb23 (Homo sapiens, UniProt P50052); assay: Radioligand binding assay, displacement of 125I-[Sar1, Ile8]-Angiotensin II, hAT2R Cb23; details: displacement of 125I-[Sar1, Ile8]-Angiotensin II, human AT2R fused to Cb23, HEK-293 cell membrane preparations; read-out: Binding affinity on hAT2R_Cb23 IC50
Chain of human AT2R fused to Cb23 (P50052 whole entry, looked up, the tested form may be a part): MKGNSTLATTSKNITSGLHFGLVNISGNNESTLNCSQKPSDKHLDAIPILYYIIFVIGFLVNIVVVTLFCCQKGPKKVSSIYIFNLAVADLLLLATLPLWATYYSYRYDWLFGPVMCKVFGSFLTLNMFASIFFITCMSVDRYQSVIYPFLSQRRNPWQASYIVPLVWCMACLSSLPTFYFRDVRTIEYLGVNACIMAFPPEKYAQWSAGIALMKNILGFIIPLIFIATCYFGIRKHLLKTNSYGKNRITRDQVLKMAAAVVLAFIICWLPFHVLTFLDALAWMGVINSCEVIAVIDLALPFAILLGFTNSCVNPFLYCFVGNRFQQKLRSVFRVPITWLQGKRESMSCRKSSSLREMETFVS
Procedure, shortened: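 Membranes from HEK-293 cells expressing human AT2R fused to Cb23 were incubated with 0.05 nM 125I-[Sar1, Ile8]-Angiotensin II in 100 μL buffer (50 mM Tris, 5 mM MgCl2, 1 mM EDTA, 0.1% BSA, pH 7.4) for one hour at 25° C. Ligands were tested as eight-point dose-response curves in duplicate, with C21 and Angiotensin II as references.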

[3] = Liver microsomal stability, rat; format: in vitro ADME; details: male, pH 7.4, liver microsomes
Protocol: as §1, §2, §3, §4, §5, §6, §7

[4] = Liver microsomal stability, human; format: in vitro ADME; details: pH 7.4, liver microsomes
Protocol: as §2, §4, §5, §6, §7

[5] = target: human AT1R (Homo sapiens (Human), UniProt P30556); assay: Counterscreen radioligand binding assay, displacement of 125I-[Sar1, Ile8]-Angiotensin II, hAT1R WT; details: for inhibition at 1 µM / inhibition at 10 µM: 125I-[Sar1, Ile8]-Ang II, semi-quantitative score; for inhibition at 1 µM: compound at 1 μM, read-out: % Displaced radioligand at 1 μM; for inhibition at 10 µM: compound at 10 μM, read-out: % Displaced radioligand at 10 μM; for IC50: HEK-293 cell membranes, read-out: Binding affinity On hAT1R IC50
Chain of human AT1R (P30556 whole entry): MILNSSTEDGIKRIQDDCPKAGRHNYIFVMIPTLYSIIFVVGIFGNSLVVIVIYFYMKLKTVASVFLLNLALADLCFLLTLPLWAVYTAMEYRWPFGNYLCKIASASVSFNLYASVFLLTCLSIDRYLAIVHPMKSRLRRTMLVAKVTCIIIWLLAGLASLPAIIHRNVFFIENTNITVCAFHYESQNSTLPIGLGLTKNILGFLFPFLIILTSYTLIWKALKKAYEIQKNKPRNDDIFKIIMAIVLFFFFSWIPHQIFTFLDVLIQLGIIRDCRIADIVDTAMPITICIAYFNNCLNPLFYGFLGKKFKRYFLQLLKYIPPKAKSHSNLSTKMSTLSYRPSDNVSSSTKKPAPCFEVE
Procedure, shortened: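 Compounds displaced 0.05 nM 125I-[Sar1, Ile8]-Ang II from human AT1R in HEK-293 membranes (1 h, 25° C; Tris/MgCl2/EDTA/BSA buffer, pH 7.4). Readout was filtration and scintillation counting, with non-specific binding set by 10 μM [Sar1]-Ang II. Values are % displacement at 1 μM and […], or IC50 from eight-point four-parameter fits.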

[6] = Metabolic stability in hepatocytes, rat; format: in vitro ADME; details: hepatocytes (cryopreserved), read-out: Rat Clint (μL/min/10^6 cells)
Protocol: The aim of this assay is to determine the metabolic stability of the compound in hepatocytes (cryopreserved) of different species (mouse CD1, rat Sprague Dawley, dog Beagle). Low hepatocyte stability may result in the formation of unwanted metabolites, high clearance, and therefore is not desirable. The decrease in parent was assessed by measuring the percentage remaining by LC-MS/MS analysis. The batches of hepatocytes were tested for quality control using Testosterone, Umbelliferone and Caffeine as reference compounds.
A 10 mM stock solution of test compound in DMSO was first diluted in DMSO to 3 mM, and then in modified Krebs-Henseleit buffer (Sigma, K3753) to 5 μM. This compound dilution was added to a suspension of pooled cryopreserved hepatocytes (BioIVT) at 37° C. under gentle shaking. Final reaction conditions were: 1 μM of test compound, <0.1% DMSO, 0.5 million viable hepatocytes/mL, and 75 μL incubation volume.
After 0, 10, 20, 45, 90, 120 and 180 min of incubation, the reaction was terminated with 3 volumes of MeCN:MeOH (2:1) containing diclofenac as analytical internal standard. Samples were mixed, centrifuged and the supernatant analyzed by LC-MS/MS (systems API4000). The instrument responses (ratios of test compound and internal standard peak areas) were referenced to the zero time point samples (considered as 100%) in order to determine the percentage of compound remaining. Plots of percentage compound remaining were used to determine the intrinsic clearance in the hepatocyte incubations.
Testosterone (1 μM) and Umbelliferone (1 μM) and Caffeine (1 μM) were used as reference compounds, being unstable and stable compounds respectively. If the hepatocyte stability values for these controls are not in the range determined by the historical data, the assay is not validated.

[7] = Liver microsomal stability, dog; format: in vitro ADME; details: male, Beagle, pH 7.4, liver microsomes
Protocol: as §3, §4, §5, §6, §7

[8] = target: CYP2D6 (Homo sapiens (Human), UniProt P10635); assay: CYP inhibition, CYP2D6; format: in vitro ADME; details: CYP 2D6, ref. inhibitor conc. 0.5 μM
Chain of CYP2D6 (P10635 whole entry): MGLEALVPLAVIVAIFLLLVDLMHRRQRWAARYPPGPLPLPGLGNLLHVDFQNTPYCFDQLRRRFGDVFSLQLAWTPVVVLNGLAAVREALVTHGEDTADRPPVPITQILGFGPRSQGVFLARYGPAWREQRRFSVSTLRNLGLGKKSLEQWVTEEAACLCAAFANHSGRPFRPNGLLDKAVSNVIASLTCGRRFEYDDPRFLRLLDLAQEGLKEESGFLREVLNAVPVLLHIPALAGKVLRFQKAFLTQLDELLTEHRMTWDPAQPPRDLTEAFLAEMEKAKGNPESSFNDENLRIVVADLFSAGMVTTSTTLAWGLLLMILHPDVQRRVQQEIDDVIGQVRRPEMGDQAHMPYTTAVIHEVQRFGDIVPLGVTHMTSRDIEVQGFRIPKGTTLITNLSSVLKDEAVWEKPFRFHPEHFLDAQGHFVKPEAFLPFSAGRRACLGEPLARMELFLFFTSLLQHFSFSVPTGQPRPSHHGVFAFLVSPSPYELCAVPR
Protocol: The aim of this assay is to determine the inhibitory potential of a test compound. A major concern for drug-drug-interaction is cytochrome P450 inhibition. Reversible CYP inhibition was determined in human liver microsomes using specific probe substrates for human cytochrome P450 isoenzymes CYP1A2, 2C9, 2C19, 2D6 and 3A4. […]
A 10 mM stock solution of test compound is prepared in methanol. This stock is further serially diluted 1:3 in methanol and then added to mixture containing 50 mM potassium phosphate buffer pH7.4, human liver microsomes (BD Gentest) and probe substrate. After pre-warming 5 min at 37° C., the reaction is started by adding co-factor mix ([…] glucose-6-phosphate, 1.7 mg/mL NADP, 6 U/mL of glucose-6-phosphate dehydrogenase), resulting in a final concentration of test compound at 10 μM (2% MeOH).
Final concentrations of co-factor mix components are as follows: 1.56 mg/mL glucose-6-phosphate, 0.34 mg/mL NADP, 1.2 U/mL of glucose-6-phosphate dehydrogenase.
After incubation at 37° C., the reaction (aliquot of 50 μL) is terminated with 150 μL CH3CN:MeOH (2:1) solution with internal standard (warfarin for 2C9, diclofenac for all other tested isoforms). Samples are centrifuged and the supernatant fractions analyzed by LC-MS/MS.
The instrument responses (ratio of test compound and internal standard peak areas) are referenced to those for solvent controls (assumed as 100%) in order to determine the percentage reduction in probe metabolism. Percent of control activity vs. concentration plots are generated and fitted using GraphPad Prism software to generate IC50.

Compound	microsomal CLint [1] [µL/min/mg]	IC50 [2] [nM]	microsomal CLint [3] [µL/min/mg]	microsomal CLint [4] [µL/min/mg]	inhibition at 1 µM [5] [%]	inhibition at 10 µM [5] [%]	IC50 [5] [nM]	hepatocyte CLint [6] [µL/min/1e6 cells]	microsomal CLint at 1 µM [7] [µL/min/mg]	inhibition at 25 min, 0.5 µM [8] [%]
CC(C)Cc1ccc(-c2nn[nH]n2)c(N2CCN(Cc3nc4ccccc4s3)CC2)c1 [Compound A-48, 2-[[4-[5-isobutyl-2-(2H-tetrazol-5-yl)-phenyl]piperazin-1-yl]methyl]-1,3-benzothiazole]	14	628	13	32	< 30	30 to 50	27800			
CC(C)Cc1cc(F)c(-c2nn[nH]n2)c(N2CC(C)N(Cc3cccnn3)C(C)C2)c1 (stereo not drawn) [Compound A-184, 3-[[4-[3-fluoro-5-isobutyl-2-(2H-tetrazol-5-yl)phen-yl]-2,6-dimethyl-piperazin-1-yl]-methyl]pyridazine]		0.893	19	18	< 30	< 30	33600	2		
COc1ccnc(CN2CCN(c3cc(CC(C)C)cc(F)c3-c3nn[nH]n3)C[C@@H]2C)c1 [Compound A-227, (2S)-4-[3-fluoro-5-isobutyl-2-(2H-tetrazol-5-yl)phenyl]-1-[(4-methoxy-2-pyridyl)methyl]-2-methyl-piperazine]		8.75	22.3	16.5	< 30	< 30			< 11.7	
Cc1cccnc1CN1CCN(c2cc(CC(C)C)cc(F)c2-c2nn[nH]n2)C[C@@H]1C [Compound A-228, (2S)-4-[3-fluoro-5-isobutyl-2-(2H-tetrazol-5-yl)phenyl]-2-methyl-1-[(3-methyl-2-pyridyl)methyl]piperazine]		14.9	28.3	97.6	< 30	< 30			< 11.7	
Cc1ccnc(CN2CCN(c3cc(CC(C)C)cc(F)c3-c3nn[nH]n3)C[C@@H]2C)c1 [Compound A-229, (2S)-4-[3-fluoro-5-isobutyl-2-(2H-tetrazol-5-yl)phenyl]-2-methyl-1-[(4-methyl-2-pyridyl)methyl]piperazine]		7.98	24.8	21.6	< 30	< 30			< 11.7	
C=C[C@H]1C[N@@]2CC[C@H]1C[C@@H]2[C@@H](O)c1ccnc2ccc(OC)cc12 [quinidine, reference compound]										87.3
